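Cultured in 96-well plates, cells were exposed to test compound for 48 hours across five concentrations. GI50: concentration for 50% inhibition of growth.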 The source made the active and inactive calls. No stated cut-off is given here; in the data, active = GI50 up to about 1.1 µM and inactive = higher.
Columns and labels:
Experiment in all cases: NCI-60 cell line screen, 48 h
[1] = test system: HT-29
[2] = test system: OVCAR-5
[3] = test system: UO-31
[4] = test system: 786-0
[5] = test system: SK-MEL-5
[6] = test system: MOLT-4
[7] = test system: UACC-62
[8] = test system: NCI-H226
[9] = test system: KM12
[10] = test system: U-251
[11] = test system: A549
[12] = test system: SK-OV-3
[13] = test system: SNB-75
[14] = test system: SF-539
[15] = test system: CCRF-CEM
[16] = test system: SNB-19
[17] = test system: CAKI-1

Measured: GI50

COc1cc(C(=C2SCCS2)c2nccc3cc(OC)c(OC)cc23)c([N+](=O)[O-])cc1OC
inactive: [1] 58.9 µM | [2] > 100 µM | [3] 27.2 µM | [4] 59.3 µM | [5] 23.7 µM | [6] 21.6 µM | [7] 74.3 µM | [8] 80.4 µM | [9] 90.4 µM | [10] 64.7 µM | [11] 39.4 µM | [12] 65.9 µM | [13] 45.1 µM | [14] > 100 µM | [15] 34.1 µM | [16] > 100 µM

COc1cccc2c1C(=O)c1c(O)c3c(c(O)c1C2=O)CC(O)(C(C)=O)CC3OC1CC([N+](C)(C)C)C(O)C(C)O1 (stereo not drawn)
inactive: [1] 94.2 µM | [2] > 100 µM | [3] > 100 µM | [4] > 100 µM | [5] > 100 µM | [6] 12.4 µM | [7] > 100 µM | [8] 80.7 µM | [9] > 100 µM | [10] 55.1 µM | [11] > 100 µM | [12] > 100 µM | [13] 52.2 µM | [17] > 100 µM | [14] 47.2 µM | [15] 48.1 µM | [16] > 100 µM

S=c1nc(N2CCCCC2)ss1
inactive: [1] 28.8 µM | [2] > 100 µM | [3] 17.7 µM | [4] 20.9 µM | [5] 16.6 µM | [6] 12.4 µM | [7] 17.5 µM | [8] 43.9 µM | [9] 17.2 µM | [10] 18.2 µM | [11] 28.4 µM | [12] > 100 µM | [13] 24.4 µM | [17] 27.7 µM | [14] 18.9 µM | [15] 11.7 µM | [16] 27.6 µM

Nc1nc(CCc2n[nH]c(N)n2)n[nH]1
inactive: [1] > 100 µM | [2] > 100 µM | [3] > 100 µM | [4] > 100 µM | [5] > 100 µM | [6] > 100 µM | [7] > 100 µM | [8] > 100 µM | [9] > 100 µM | [10] > 100 µM | [11] > 100 µM | [12] > 100 µM | [13] > 100 µM | [17] > 100 µM | [14] > 100 µM | [15] > 100 µM | [16] > 100 µM

N#CC(C#N)=Cc1ccc(Oc2ccccc2)cc1
inactive: [1] 22.4 µM | [2] > 100 µM | [3] 25.9 µM | [4] 18.2 µM | [5] 24.5 µM | [6] 28.6 µM | [7] 16.8 µM | [8] > 43.9 µM | [9] 39.3 µM | [10] 23.4 µM | [11] > 100 µM | [12] > 100 µM | [13] 25.1 µM | [17] 43.8 µM | [14] 19.9 µM | [15] 23.8 µM | [16] 37.3 µM

Cc1c2cc[n+](C)cc2c(C)c2c1[nH]c1ccc(OC(C)(C)C)cc12
inactive: [1] > 100 µM | [2] > 100 µM | [3] > 100 µM | [4] > 100 µM | [5] > 100 µM | [6] > 100 µM | [7] > 100 µM | [8] > 100 µM | [9] > 100 µM | [10] > 100 µM | [11] > 100 µM | [12] > 100 µM | [13] > 100 µM | [17] > 100 µM | [14] > 100 µM | [15] > 100 µM

C/C(=N\NC(N)=S)C(CN(CC(C)C)CC(C)C)C(=O)Nc1ccc(C)cc1C (stereo not drawn)
inactive: [1] > 100 µM | [2] > 100 µM | [3] > 100 µM | [4] > 100 µM | [5] > 100 µM | [6] > 100 µM | [7] > 100 µM | [8] > 100 µM | [9] > 100 µM | [10] > 100 µM | [11] > 100 µM | [12] > 100 µM | [13] 90.6 µM | [17] > 100 µM | [14] > 100 µM | [15] > 100 µM | [16] > 100 µM

CN(C)CC1(C)CC/C(=C\c2ccccc2)C1=O (stereo not drawn)
inactive: [1] > 100 µM | [2] > 100 µM | [3] > 100 µM | [4] > 100 µM | [5] > 100 µM | [6] > 100 µM | [7] > 100 µM | [8] > 100 µM | [9] > 100 µM | [10] > 100 µM | [11] > 100 µM | [13] > 100 µM | [17] > 100 µM | [14] > 100 µM | [15] 43.1 µM | [16] 44.1 µM

O=S(=O)(c1ccccc1)N1CCC1c1ccccc1 (stereo not drawn)
inactive: [1] > 100 µM | [3] 29.6 µM | [4] > 100 µM | [5] > 100 µM | [6] 33.7 µM | [7] 77.8 µM | [8] > 100 µM | [9] > 100 µM | [10] > 100 µM | [11] > 100 µM | [12] > 100 µM | [13] 56.4 µM | [14] > 100 µM | [15] > 100 µM | [16] > 100 µM
